Source: PubChem BioAssay (NCI)
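Step 1: Grow cells in 96-well plates. Step 2: Expose to compound for 48 hours at 5 concentrations. Step 3: Interpolate endpoints linearly; if unreached, use highest concentration. TGI denotes the concentration required for complete inhibition of growth.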

What was measured:
Assay in all cases: growth of human tumour cells (NCI), 48 h
ACHN renal = tested on: ACHN renal
MDA-MB-231 breast = tested on: MDA-MB-231 breast
786-0 renal = tested on: 786-0 renal
T-47D breast = tested on: T-47D breast
DU-145 prostate = tested on: DU-145 prostate
MDA-MB-435 = tested on: MDA-MB-435
HS 578T breast = tested on: HS 578T breast
OVCAR-3 ovarian = tested on: OVCAR-3 ovarian
HL-60(TB) leukemia = tested on: HL-60(TB) leukemia
BT-549 breast = tested on: BT-549 breast
OVCAR-8 ovarian = tested on: OVCAR-8 ovarian
SNB-75 CNS = tested on: SNB-75 CNS
NCI-H226 lung = tested on: NCI-H226 lung
PC-3 prostate = tested on: PC-3 prostate
M14 melanoma = tested on: M14 melanoma
A549 NSCLC = tested on: A549 NSCLC
MCF7 breast = tested on: MCF7 breast
SF-295 CNS = tested on: SF-295 CNS
SK-OV-3 ovarian = tested on: SK-OV-3 ovarian

Row | SMILES | TGI (ACHN renal) [µM] | TGI (MDA-MB-231 breast) [µM] | TGI (786-0 renal) [µM] | TGI (T-47D breast) [µM] | TGI (DU-145 prostate) [µM] | TGI (MDA-MB-435) [µM] | TGI (HS 578T breast) [µM] | TGI (OVCAR-3 ovarian) [µM] | TGI (HL-60(TB) leukemia) [µM] | TGI (BT-549 breast) [µM] | TGI (OVCAR-8 ovarian) [µM] | TGI (SNB-75 CNS) [µM] | TGI (NCI-H226 lung) [µM] | TGI (PC-3 prostate) [µM] | TGI (M14 melanoma) [µM] | TGI (A549 NSCLC) [µM] | TGI (MCF7 breast) [µM] | TGI (SF-295 CNS) [µM] | TGI (SK-OV-3 ovarian) [µM]
1 | O=c1oc2ccccc2c(O)c1C(c1ccc(-c2ccccc2)cc1)c1c(O)c2ccccc2oc1=O | 60.4 | 48.8 | 81.3 | > 100 | > 100 | 46.9 | 60.4 | 58.7 | 51.7 | 40.4 | 34.1 | > 100 | 69 | 56.4 |  |  |  |  | 
2 | CO[C@@]12C[C@@H](C)[C@]34O[C@H]3C[C@]3(C)O[C@]43CC1=C(C)C(=O)O2 | > 100 | > 100 | > 100 | > 100 | > 100 | > 100 | > 100 | > 100 |  | > 100 | > 100 |  | > 100 | > 100 | > 100 | > 100 | > 100 | > 100 | > 100
3 | C=CCOCn1cc(F)c(=O)[nH]c1=O | > 100 | > 100 | > 100 | > 100 | > 100 | > 100 | > 100 |  | > 100 | > 100 | > 100 | > 100 | > 100 | > 100 | > 100 | > 100 | > 100 | > 100 | > 100
4 | COc1ccccc1/C=C1\S/C(=N/Nc2nc(C)c(C(C)=O)s2)NC1=O | > 100 | 65 | > 100 | 72.8 | > 100 | > 100 | 70.1 | 56.1 | 63.2 |  | > 100 | 61 | 39.8 | > 100 | > 100 | > 100 | 67 | > 100 | > 100
5 | COC1=C2CC(C)CC(OC)C(OC(=O)CN)[C@H](C)/C=C(\C)C(OC(N)=O)C(OC)/C=C\C=C(/C)C(=O)NC(=CC1=O)C2=O (stereo partly drawn) | 13.4 | 1.6 | 6.45 | 1.32 | 16.4 | 2.89 | 20.2 | 2.98 |  | 14.2 | 4.24 |  | 24.7 | 13.3 | 10.8 | 21.8 | 2.01 | 17.5 | 16.7
6 | CC(NC1=CC(=O)c2cccnc2C1=O)C(O)c1ccccc1 (stereo not drawn) | 14.5 | > 46.3 | 12.2 | 18.7 | 3.65 | 3.13 | 8.14 | 6 | 6.69 | 3.59 | 17.6 | 3.05 | 4.44 | 10.6 | 3.12 | 5.13 | 3.04 | 2.63 | 23.4
7 | CS(=O)(=O)OCCCSCCSCCCOS(C)(=O)=O |  | > 100 | > 100 | > 100 | > 100 | > 100 |  | > 100 | > 100 | > 100 | > 100 | > 100 |  | > 100 | > 100 | > 100 | > 100 | > 100 | > 100
8 | CO[C@]12S[C@@H]3CCCC[C@@]31C(C)(C)C(=O)N2c1ccccc1 | > 100 | > 100 | > 100 | > 100 | > 100 | > 100 | > 100 | 38.5 | 42.5 | > 100 | > 100 | > 100 |  | 96.7 | > 100 | > 100 | > 100 | 51.1 | 76.8
9 | O=C1CCC2c3ccccc3NCN12 (stereo not drawn) | > 100 | > 100 | > 100 | > 100 | > 100 | > 100 | > 100 | > 100 | > 100 |  | > 100 | > 100 | > 100 | > 100 | > 100 | > 100 | > 100 | > 100 | > 100
10 | Nc1cc2ncnn2c(SCC(=O)N/N=C/C(Br)=C\c2ccccc2)n1 | 62.7 | 40 | 36.9 | 9.35 |  | 30.9 | > 100 | 40.5 | 62.4 | 44.1 | 52.3 | > 100 | 68.6 | 27.7 |  | 60.1 | 38.8 | 67.7 | 
11 | C/C(=N\Nc1nc2ccccc2[nH]1)c1cnccn1 |  | > 57.8 | > 100 | > 68.4 |  | > 29.6 | > 100 | > 100 | 0.429 | > 85.3 | > 93.3 | > 53.9 |  | > 88.4 | 4.66 | > 40.5 | > 66.8 | > 76.5 | > 100
12 | CCOC(=O)NN(C(=O)OCC)C(=C(C1=CCCCC1)N1CCOCC1)N(NC(=O)OCC)C(=O)OCC | > 100 | > 100 | > 100 | > 100 | > 100 | > 100 |  | > 100 | > 100 | > 100 | > 100 | > 100 | > 100 | > 100 | > 100 | > 100 | > 100 | > 100 | > 100
13 | CCNC1=C(NC(=O)c2ccccc2)C(=O)c2ccccc2C1=O |  | > 100 | > 100 | > 100 | > 100 | 19.4 | > 100 | 85.3 | > 100 | > 100 | > 100 |  | > 100 | 78.9 | > 100 | > 100 | > 100 | > 100 | > 100
14 | CC(=O)Oc1c2ccsc2c(OC(C)=O)c2ccsc12 | 2.28 | 6.17 | 5.2 | 4.09 | 0.833 | 0.377 | 0.951 | 6.54 | > 26.5 | 1.86 | 1.22 | 0.753 | 5.07 |  | 0.94 |  | 2.31 | 2.41 | 9.93
15 | Cc1ccc(S(=O)(=O)N/N=C2\CCCCCCCCCCC2CN(C)C)cc1 (stereo not drawn) | 40.2 | 34 | 29.9 | 30.2 | 34.8 | 28 | 35.6 | 32.9 | 97.5 | 32.1 | 30.7 |  | 35.2 | 30.3 | 31.1 | 41 | 31 | 30.9 | 36
16 | Nc1ncc(C=O)c(NCC2(CO)CCC2)n1 |  | > 100 | > 100 | 88.9 | > 100 | > 100 | > 100 | > 100 | > 100 |  | > 100 | > 100 | > 100 | > 100 |  | > 100 | > 100 | > 100 | 
17 | COC(=O)c1c(O)ccc2c1c1c(n2Cc2ccccc2OC)C(=O)c2ccccc2C1=O | 29.7 | 54.9 | 24 | 9.58 | 30 | 27.7 | 53.2 | 23 | 18.3 | 32.1 | 27.4 |  | 39.3 | 24.5 | 22.6 | 20.2 | 43.7 | 63.6 | 53.7
18 | CCOC(=O)C1C(c2ccc(OC)cc2)c2c([nH][nH]c2=O)CC1(C)O (stereo not drawn) | > 100 | > 100 | > 100 | > 100 | > 100 | > 100 | > 100 | > 100 | > 100 | > 100 | > 100 | > 100 |  | > 100 | > 100 | > 100 | > 100 | > 100 | 
19 | COC(=O)c1ccc(C)cc1CC1Cc2cccc(C)c2C1=O (stereo not drawn) | 97.6 | 51.9 | > 100 | 57.9 | > 100 | 3.34 | 39.9 | 30.7 |  | 87.6 | 33.5 | 36.9 | 9.66 | 64.8 | 23.2 | > 100 | 7.38 | 72.2 | 92
20 | Cc1ccc(S(=O)(=O)N/N=C2\CCC3(O)CC2(C)CCC2C3CC2(C)C)cc1 (stereo not drawn) | > 100 | > 100 | > 100 | > 100 | > 100 | > 100 | 95.6 | > 100 | > 100 | > 100 | > 100 |  | 89.5 | 66.2 | > 100 | > 100 | > 100 | > 100 | > 100
21 | CN(/N=C/c1ccccn1)C1=NCCCN1 | > 100 | > 100 | > 100 | > 100 |  | > 100 | > 100 | > 100 | > 100 | > 100 | > 100 | > 100 | > 100 | > 100 | > 100 | > 100 | > 100 | > 100 | > 100
22 | COc1ccc(CCNC(=O)c2ccccc2C2c3ccc(OCc4ccccc4)cc3Oc3cc(OCc4ccccc4)ccc32)cc1OC | > 100 | > 100 | > 100 | > 100 | > 100 | > 100 |  | > 100 | > 100 | > 100 | > 100 |  | > 100 | > 100 | > 100 | > 100 | > 100 | > 100 | > 100
23 | CCOC(=O)c1c(N2CCCC2)[nH]c(=O)c(C(c2ccc(Cl)c([N+](=O)[O-])c2)c2c(O)c(C(=O)OCC)c(N3CCCC3)[nH]c2=O)c1O | > 100 | 50.5 | > 100 | > 100 | > 100 | > 100 | > 100 | > 100 |  | 51.8 | 33.5 | 34.4 | > 100 | 83.9 | 42.7 | > 100 | > 100 | > 100 | > 100
24 | c1ccc(-c2c(-c3cccs3)[nH]c(-c3cccs3)c2-c2ccccn2)nc1 | > 100 | 48.7 | 53 | 94.9 | > 100 | 43.6 | 59.7 | 58.3 | > 100 | 41.5 | 75.2 | 42.9 | 49.2 | 30.8 | 40.7 | 72.8 |  | 39.2 | 51.3
25 | Cc1cn(Cc2cccc(C3=NCCCN3)c2)c(=O)n(Cc2cccc(C3=NCCCN3)c2)c1=O | > 100 | > 100 | > 100 | > 100 | > 100 | > 100 | > 100 | > 100 | > 100 | > 100 | > 100 | > 100 |  | > 100 | > 100 | > 100 | > 100 | > 100 | > 100
26 | O=C1c2ccccc2C(=O)c2c(NC(=O)C3CC3)ccc(NC(=O)C3CC3)c21 | > 100 | > 100 | > 100 | > 100 |  | > 100 | > 100 | > 100 | > 100 | > 100 | > 100 |  |  | > 100 |  | > 100 | > 100 | > 100 | 
27 | CCC/C(Cl)=N/OC(NC(=O)OCC)(C(F)(F)F)C(F)(F)F | 32.3 | 31.6 | 31.2 | 66.9 | > 100 | 34.8 | 77.3 | 29.6 | 48.2 |  | > 100 | > 100 | > 100 | > 100 | 32.1 | > 100 | 43.5 | > 100 | 
